Source: patent publication US20120065195A1, “COMPOUNDS FOR TREATING NEURODEGENERATIVE DISEASES” (priority 2010, published 2012)

These molecules were tested against T1, BACE1 (Homo sapiens, UniProt P56817) (assay: Cellular BACE1 Inhibition Assay (in vitro cellular Amyloidβ 1-40 production assay, HTRF immunoassay)).
T1 construct: endogenous in cells; host or cells: HEK-293 (stably transfected with wild type APP695 only)
Format: cell-based
Procedure: The BACE inhibition properties of the compounds of the invention may be determined by the following in vitro cellular Amyloidβ 1-40 production assay.
Inhibition of Amyloidβ1-40 production was determined by incubating cells with compound for 48 hours and quantifying the level of Amyloidβ 1-40 using an HTRF immunoassay.
Materials and Methods: HEK-293 cells stably transfected with a DNA construct containing the coding sequence for the wild type APP695 sequence were grown in DMEM supplemented with 10% fetal bovine serum, penicillin/streptomycin and 150 μg/mL G418. Cells were plated in 96-well plates at 35,000 cells/well and allowed to attach for 8-12 hours. Media was changed to DMEM supplemented with 10% fetal bovine serum, penicillin/streptomycin 15 minutes prior to compound addition. Diluted compounds were then added at a final concentration of 0.5% DMSO. After 48 hours, 4 μL of media from each well was added to a corresponding well of a 384 well plate (Perkin Elmer Cat#6008280) containing the HTRF reagents. HTRF reagents were obtained from the CisBio Amyloidβ 1-40 peptide assay kit (Cat#62B40PEC) and were prepared as follows anti-peptide β (1-40)-Cryptate and anti-peptide β (1-40)-XL655 were stored in 2 plate aliquots at −80° C. Diluent and Reconstitution buffer were stored at 4° C. Aliquots of the two antibodies were diluted 1:100 with Reconstitution buffer, and this mixture was diluted 1:2 with Diluent. 12 μL of the reagent mixture was added to the required wells of the 384 well assay plate. The assay plate was incubated at 4° C. for 17 hours and then analyzed for fluorescence at 665 and 620 nm.

T1 sequence (P56817 46-501): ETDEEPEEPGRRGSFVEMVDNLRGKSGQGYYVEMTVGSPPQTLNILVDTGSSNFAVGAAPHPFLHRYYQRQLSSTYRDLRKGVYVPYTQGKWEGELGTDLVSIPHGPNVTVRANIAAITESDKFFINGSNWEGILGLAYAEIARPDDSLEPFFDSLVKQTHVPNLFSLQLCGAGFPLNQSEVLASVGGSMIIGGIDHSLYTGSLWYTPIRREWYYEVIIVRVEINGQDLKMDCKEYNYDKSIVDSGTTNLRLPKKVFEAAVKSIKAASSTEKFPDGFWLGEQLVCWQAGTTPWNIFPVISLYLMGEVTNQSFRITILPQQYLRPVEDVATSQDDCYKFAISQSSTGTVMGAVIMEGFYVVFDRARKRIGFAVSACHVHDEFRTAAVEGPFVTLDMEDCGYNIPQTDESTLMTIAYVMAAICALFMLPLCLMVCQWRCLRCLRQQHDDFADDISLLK

Row | IC50 | Structure (SMILES)
1 | 14.8 nM | CN1C(=O)C2(CC(C)(C)Cc3ccc(-c4cc(C(F)(F)F)ccn4)cc32)N=C1N (centres unmarked) [Example 139, 2-amino-1,3′,3′-trimethyl-7′-(4-(trifluoromethyl)pyridin-2-yl)-3′,4′-dihydro-2′H-spiro[imidazole-4,1′-naphthalen]-5(1H)-one]
2 | 3.3 nM | CN1C(=O)[C@]2(C[C@@](C)(CO)Cc3ccc(-c4cc(F)cc(Cl)c4)cc32)N=C1N [Example 144, (1′R,3′S)-2-amino-7′-(3-chloro-5-fluorophenyl)-3′-(hydroxymethyl)-1,3′-dimethyl-3′,4′-dihydro-2′H-spiro[imidazole-4,1′-naphthalen]-5(1H)-one]
3 | 1.3 nM | CN1C(=O)[C@]2(C[C@@](C)(Cc3ccccc3)Cc3ccc(-c4cncc(Cl)c4)cc32)N=C1N [Example 147, (1′R,3′S)-2-amino-3′-benzyl-7′-(5-chloropyridin-3-yl)-1,3′-dimethyl-3′,4′-dihydro-2′H-spiro[imidazole-4,1′-naphthalen]-5(1H)-one]
4 | 17.2 nM | CN1C(=O)C2(N=C1N)c1cc(-c3cccnc3F)ccc1CC(C)(C)C2F (centres unmarked) [Example 156, 2-amino-2′-fluoro-7′-(2-fluoropyridin-3-yl)-1,3′,3′-trimethyl-3′,4′-dihydro-2′H-spiro[imidazole-4,1′-naphthalen]-5(1H)-one]
5 | 39.6 nM | CN1C(=O)C2(N=C1N)c1cc(-c3cncnc3)ccc1CC(C)(C)C2F (centres unmarked) [Example 157, 2-amino-2′-fluoro-1,3′,3′-trimethyl-7′-(pyrimidin-5-yl)-3′,4′-dihydro-2′H-spiro[imidazole-4,1′-naphthalen]-5(1H)-one]
6 | 6.7 nM | CN1C(=O)C2(N=C1N)c1cc(-c3cncc(Cl)c3)ccc1CC(C)(C)C2F (centres unmarked) [Example 158, 2-amino-7′-(5-chloropyridin-3-yl)-2′-fluoro-1,3′,3′-trimethyl-3′,4′-dihydro-2′H-spiro[imidazole-4,1′-naphthalen]-5(1H)-one]
7 | 26.1 nM | CN1C(=O)C2(N=C1N)c1cc(-c3cccnc3F)ccc1CC(C)(C)C2(F)F (centres unmarked) [Example 159, 2-amino-2′,2′-difluoro-7′-(2-fluoropyridin-3-yl)-1,3′,3′-trimethyl-3′,4′-dihydro-TH-spiro[imidazole-4,1′-naphthalen]-5(1H)-one]
8 | 87.3 nM | CN1C(=O)C2(N=C1N)c1cc(-c3cncnc3)ccc1CC(C)(C)C2(F)F (centres unmarked) [Example 160, 2-amino-2′,2′-difluoro-1,3′,3′-trimethyl-7′-(pyrimidin-5-yl)-3′,4′-dihydro-2′H-spiro[imidazole-4,1′-naphthalen]-5(1H)-one]
